Experimental data from ChEMBL document CHEMBL4000253 (Bioorg Med Chem, 2017).
Calls of active or inactive are those of the source. The rule behind the calls is not given here.

Columns and labels:
Mushroom tyrosinase [1] = target: T1, Mushroom tyrosinase (Agaricus bisporus, UniProt O42713+Q00024+C7FF04+C7FF05); test: Inhibition of mushroom tyrosinase using L-DOPA as substrate assessed as decrease in dopachrome formation preincubated for 10 mins followed by substrate addition by spectrophotometric method
Mushroom tyrosinase [2] = target: T1, Mushroom tyrosinase; test: Competitive inhibition of mushroom tyrosinase using 0.3 to 1 mM L-DOPA as substrate assessed as decrease in dopachrome formation preincubated for 10 mins followed by substrate addition by Lineweaver-Burk plot analysis
B16-F10 [3] = test: Cytotoxicity against mouse B16F10 cells assessed as decrease in cell viability at <50 uM after 48 hrs by MTT assay; assay type: cell-based; details: b16-f10, 48 h
B16-F10 [4] = test: Cytotoxicity against mouse B16F10 cells assessed as decrease in cell viability at >50 uM after 48 hrs by MTT assay; assay type: cell-based; details: b16-f10, 48 h
[5] = target: T2, Mushroom tyrosinase (Agaricus bisporus) (UniProt O42713+Q00024+C7FF04+C7FF05); test: Potency index, ratio of kojic acid IC50 to test compound IC50 for mushroom tyrosinase
[6] = target: T3, Tyrosinase (Mus musculus) (UniProt P11344); test: Inhibition of tyrosinase in alpha-MSH-stimulated mouse B16F10 cells up to 50 uM preincubated for 48 hrs followed by L-DOPA addition
T3 sequence (whole entry): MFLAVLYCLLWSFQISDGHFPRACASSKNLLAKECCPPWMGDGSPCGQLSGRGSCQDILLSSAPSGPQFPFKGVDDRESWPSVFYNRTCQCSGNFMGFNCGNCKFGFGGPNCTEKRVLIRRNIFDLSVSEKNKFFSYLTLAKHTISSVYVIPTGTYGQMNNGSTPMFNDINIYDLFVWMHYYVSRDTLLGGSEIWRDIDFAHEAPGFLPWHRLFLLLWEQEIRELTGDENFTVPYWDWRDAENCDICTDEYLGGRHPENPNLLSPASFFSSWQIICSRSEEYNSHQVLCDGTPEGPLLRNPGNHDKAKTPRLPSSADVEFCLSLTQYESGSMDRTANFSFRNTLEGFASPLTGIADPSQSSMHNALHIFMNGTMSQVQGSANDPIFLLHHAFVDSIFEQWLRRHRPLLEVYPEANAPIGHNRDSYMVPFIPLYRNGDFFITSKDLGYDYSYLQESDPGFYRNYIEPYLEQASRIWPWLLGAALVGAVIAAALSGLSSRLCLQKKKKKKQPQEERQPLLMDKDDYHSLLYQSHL

[7] = target: T3, Tyrosinase (Mus musculus); test: Inhibition of tyrosinase in alpha-MSH-stimulated mouse B16F10 cells assessed as decrease in melanin content up to 50 uM after 48 hrs
[8] = target: T3, Tyrosinase (Mus musculus); test: Inhibition of tyrosinase in alpha-MSH-stimulated mouse B16F10 cells preincubated for 48 hrs followed by L-DOPA addition
[9] = target: T3, Tyrosinase (Mus musculus); test: Inhibition of tyrosinase in alpha-MSH-stimulated mouse B16F10 cells assessed as decrease in melanin content after 48 hrs
[10] = target: T3, Tyrosinase (Mus musculus); test: Inhibition of tyrosinase in alpha-MSH-stimulated mouse B16F10 cells at 10 uM preincubated for 48 hrs followed by L-DOPA addition relative to control
[11] = target: T3, Tyrosinase (Mus musculus); test: Inhibition of tyrosinase in alpha-MSH-stimulated mouse B16F10 cells at 25 uM preincubated for 48 hrs followed by L-DOPA addition relative to control
[12] = target: T3, Tyrosinase (Mus musculus); test: Inhibition of tyrosinase in alpha-MSH-stimulated mouse B16F10 cells assessed as decrease in melanin content at 10 to 50 uM after 48 hrs
[13] = target: T3, Tyrosinase (Mus musculus); test: Inhibition of tyrosinase in alpha-MSH-stimulated mouse B16F10 cells at 10 to 50 uM preincubated for 48 hrs followed by L-DOPA addition and subsequent incubation in dark measured after 1 hr by zymographic method
[14] = target: T2, Mushroom tyrosinase (Agaricus bisporus); test: Uncompetitive inhibition of mushroom tyrosinase using 0.3 to 1 mM L-DOPA as substrate assessed as decrease in dopachrome formation preincubated for 10 mins followed by substrate addition by Lineweaver-Burk plot analysis
[15] = target: T3, Tyrosinase (Mus musculus); test: Inhibition of tyrosinase in alpha-MSH-stimulated mouse B16F10 cells assessed as residual activity at 10 uM preincubated for 48 hrs followed by L-DOPA addition relative to control
[16] = target: T3, Tyrosinase (Mus musculus); test: Inhibition of tyrosinase in alpha-MSH-stimulated mouse B16F10 cells assessed as residual activity at 25 uM preincubated for 48 hrs followed by L-DOPA addition relative to control
[17] = target: T3, Tyrosinase (Mus musculus); test: Inhibition of tyrosinase in alpha-MSH-stimulated mouse B16F10 cells assessed as residual activity at 50 uM preincubated for 48 hrs followed by L-DOPA addition relative to control

SMILES: O=c1oc2cc(O)cc(O)c2cc1-c1cccs1
- IC50 (Mushroom tyrosinase [1]): 0.15 µM
- Ki (Mushroom tyrosinase [2]): 0.24 µM
- Activity (B16-F10 [3]): Non-Toxic
- Activity (B16-F10 [4]): Toxic
- Ratio IC50 [5]: 120
- inhibition [6]: inactive
- inhibition [7]: inactive

SMILES: O=c1oc2cc(O)cc(O)c2cc1-c1ccsc1
- IC50 (Mushroom tyrosinase [1]): 0.19 µM
- inhibition [6]: inactive
- inhibition [7]: inactive

SMILES: O=c1oc2cc(O)cc(O)c2cc1-c1ccccc1
- IC50 (Mushroom tyrosinase [1]): 408.37 µM

SMILES: O=c1oc2cc(O)cc(O)c2cc1-c1ccc(Br)cc1
- IC50 (Mushroom tyrosinase [1]): 1.05 µM
- inhibition [8]: Dose-dependent effect
- inhibition [9]: Dose-dependent effect
- inhibition [10]: 18.1%
- inhibition [11]: 51.8%
- inhibition [12]: Active
- inhibition [13]: Active

SMILES: O=c1oc2cc(O)cc(O)c2cc1-c1cc(Br)cs1
- IC50 (Mushroom tyrosinase [1]): 0.38 µM
- Kis [14]: 0.128 µM
- Activity (B16-F10 [3]): Non-Toxic
- Activity (B16-F10 [4]): Toxic
- Ratio IC50 [5]: 50
- inhibition [8]: Dose-dependent effect
- inhibition [9]: Dose-dependent effect
- Activity [15]: 94.3%
- Activity [16]: 78.5%
- Activity [17]: 27.7%
- inhibition [12]: Active

SMILES: O=c1oc2c(O)c(O)ccc2cc1-c1cc(Br)cs1
- IC50 (Mushroom tyrosinase [1]): 259.03 µM

SMILES: COc1ccc2oc(=O)c(-c3cccs3)cc2c1
- IC50 (Mushroom tyrosinase [1]): > 1000 µM

SMILES: O=c1oc2ccc(O)cc2cc1-c1cccs1
- IC50 (Mushroom tyrosinase [1]): > 1000 µM

SMILES: O=c1oc2cc(O)ccc2cc1-c1cc(Br)cs1
- IC50 (Mushroom tyrosinase [1]): 31.8 µM

SMILES: O=c1oc2c(O)cccc2cc1-c1cc(Br)cs1
- IC50 (Mushroom tyrosinase [1]): > 1000 µM

SMILES: COc1ccc2oc(=O)c(-c3cc(Br)cs3)cc2c1
- IC50 (Mushroom tyrosinase [1]): > 1000 µM

SMILES: O=c1oc2cc(O)ccc2cc1-c1cccs1
- IC50 (Mushroom tyrosinase [1]): > 1000 µM
